What was measured:
[1] = test system: EKVX; assay: NCI60 screening, Non-Small Cell Lung Cancer, EKVX; assay type: cell-based, human
[2] = test system: M14; assay: NCI60 screening, Melanoma, M14; assay type: cell-based, human
[3] = test system: HL-60(TB); assay: NCI60 screening, Leukemia, HL-60(TB); assay type: cell-based, human
[4] = test system: NCI-H226; assay: NCI60 screening, Non-Small Cell Lung Cancer, NCI-H226; assay type: cell-based, human
[5] = test system: IGROV1; assay: NCI60 screening, Ovarian Cancer, IGROV1; assay type: cell-based, human
[6] = test system: A549/ATCC; assay: NCI60 screening, Non-Small Cell Lung Cancer, A549/ATCC; assay type: cell-based, human
[7] = test system: PC-3; assay: NCI60 screening, Prostate Cancer, PC-3; assay type: cell-based, human
[8] = test system: HT29; assay: NCI60 screening, Colon Cancer, HT29; assay type: cell-based, human
[9] = test system: human tumor cell lines of the cancer screening panel; assay: NCI 60 cell line screening, whole panel, comparison with OSU-A9; assay type: cell-based; conditions: OSU-A9 data not shown
[10] = test system: HS 578T; assay: NCI60 screening, Breast Cancer, HS 578T; assay type: cell-based, human
[11] = test system: UACC-62; assay: NCI60 screening, Melanoma, UACC-62; assay type: cell-based, human
[12] = test system: 786-0; assay: NCI60 screening, Renal Cancer, 786-0; assay type: cell-based, human
[13] = test system: SW-620; assay: NCI60 screening, Colon Cancer, SW-620; assay type: cell-based, human
[14] = test system: SK-OV-3; assay: NCI60 screening, Ovarian Cancer, SK-OV-3; assay type: cell-based, human
[15] = test system: T-47D; assay: NCI60 screening, Breast Cancer, T-47D; assay type: cell-based, human
[16] = test system: SNB-19; assay: NCI60 screening, CNS Cancer, SNB-19; assay type: cell-based, human
[17] = test system: MOLT-4; assay: NCI60 screening, Leukemia, MOLT-4; assay type: cell-based, human
[18] = test system: MCF7; assay: NCI60 screening, Breast Cancer, MCF7; assay type: cell-based, human
[19] = Homo sapiens, read-out: LC50 (the source's name)

## Cc1ccc2c(c1)c(CO)cn2S(=O)(=O)c1ccc(Cl)c([N+](=O)[O-])c1 [OSU-A9M, [1-(4-chloro-3-nitro-benzenesulfonyl)-5-methyl-1H-indol-3-yl]-methanol]
[1]
  TGI: 3.15E−6
[1]; Homo sapiens
  GI50: 1600 nM
[1]; [19]
  CC50: 6210 nM
[1]; Log10 Concentration −4.0
  Percent Growth: −93%
[1]; Log10 Concentration −5.0
  Percent Growth: −85%
[1]; Log10 Concentration −6.0
  Percent Growth: 85%
[1]; Log10 Concentration −7.0
  Percent Growth: 99%
[1]; Log10 Concentration −8.0
  Percent Growth: 91%
[2]
  TGI: 2.88E−6
[2]; Homo sapiens
  GI50: 1520 nM
[2]; [19]
  CC50: 5430 nM
[2]; Log10 Concentration −4.0
  Percent Growth: −100%
[2]; Log10 Concentration −5.0
  Percent Growth: −98%
[2]; Log10 Concentration −6.0
  Percent Growth: 83%
[2]; Log10 Concentration −7.0
  Percent Growth: 97%
[2]; Log10 Concentration −8.0
  Percent Growth: 95%
[3]
  TGI: 4.80E−6
[3]; Homo sapiens
  GI50: 1550 nM
[3]; [19]
  CC50: 32500 nM
[3]; Log10 Concentration −4.0
  Percent Growth: −67%
[3]; Log10 Concentration −5.0
  Percent Growth: −32%
[3]; Log10 Concentration −6.0
  Percent Growth: 69%
[3]; Log10 Concentration −7.0
  Percent Growth: 84%
[3]; Log10 Concentration −8.0
  Percent Growth: 91%
[4]
  TGI: 3.32E−6
[4]; Homo sapiens
  GI50: 953 nM
[4]; [19]
  CC50: 17400 nM
[4]; Log10 Concentration −4.0
  Percent Growth: −65%
[4]; Log10 Concentration −5.0
  Percent Growth: −45%
[4]; Log10 Concentration −6.0
  Percent Growth: 49%
[4]; Log10 Concentration −7.0
  Percent Growth: 93%
[4]; Log10 Concentration −8.0
  Percent Growth: 91%
[5]
  TGI: 1.23E−6
[5]; Homo sapiens, IGROV-1
  GI50: 349 nM
[5]; Homo sapiens, IGROV-1, read-out: LC50 (the source's name)
  CC50: 3500 nM
[5]; Log10 Concentration −4.0
  Percent Growth: −100%
[5]; Log10 Concentration −5.0
  Percent Growth: −100%
[5]; Log10 Concentration −6.0
  Percent Growth: 10%
[5]; Log10 Concentration −7.0
  Percent Growth: 98%
[5]; Log10 Concentration −8.0
  Percent Growth: 86%
[6]
  TGI: 4.89E−6
[6]; Homo sapiens
  GI50: 2050 nM
[6]; [19]
  CC50: > 100000 nM
[6]; Log10 Concentration −4.0
  Percent Growth: −47%
[6]; Log10 Concentration −5.0
  Percent Growth: −41%
[6]; Log10 Concentration −6.0
  Percent Growth: 91%
[6]; Log10 Concentration −7.0
  Percent Growth: 94%
[6]; Log10 Concentration −8.0
  Percent Growth: 95%
[7]
  TGI: 4.32E−6
[7]; Homo sapiens
  GI50: 1620 nM
[7]; [19]
  CC50: 13900 nM
[7]; Log10 Concentration −4.0
  Percent Growth: −93%
[7]; Log10 Concentration −5.0
  Percent Growth: −43%
[7]; Log10 Concentration −6.0
  Percent Growth: 75%
[7]; Log10 Concentration −7.0
  Percent Growth: 74%
[7]; Log10 Concentration −8.0
  Percent Growth: 80%
[8]
  TGI: 1.59E−6
[8]; Homo sapiens, HT-29
  GI50: 434 nM
[8]; Homo sapiens, HT-29, read-out: LC50 (the source's name)
  CC50: 3980 nM
[8]; Log10 Concentration −4.0
  Percent Growth: −100%
[8]; Log10 Concentration −5.0
  Percent Growth: −100%
[8]; Log10 Concentration −6.0
  Percent Growth: 25%
[8]; Log10 Concentration −7.0
  Percent Growth: 94%
[8]; Log10 Concentration −8.0
  Percent Growth: 91%
[9]
  Potency in suppressing cancer cell growth compared with OSU-A9: significantly higher potency
[10]
  TGI: 3.05E−6
[10]; Homo sapiens
  GI50: 1020 nM
[10]; [19]
  CC50: 9110 nM
[10]; Log10 Concentration −4.0
  Percent Growth: −63%
[10]; Log10 Concentration −5.0
  Percent Growth: −54%
[10]; Log10 Concentration −6.0
  Percent Growth: 51%
[10]; Log10 Concentration −7.0
  Percent Growth: 88%
[10]; Log10 Concentration −8.0
  Percent Growth: 83%
[11]
  TGI: 3.19E−6
[11]; Homo sapiens
  GI50: 1670 nM
[11]; [19]
  CC50: 6070 nM
[11]; Log10 Concentration −4.0
  Percent Growth: −93%
[11]; Log10 Concentration −5.0
  Percent Growth: −89%
[11]; Log10 Concentration −6.0
  Percent Growth: 90%
[11]; Log10 Concentration −7.0
  Percent Growth: 91%
[11]; Log10 Concentration −8.0
  Percent Growth: 93%
[12]
  TGI: 3.22E−6
[12]; Homo sapiens
  GI50: 1780 nM
[12]; [19]
  CC50: 5830 nM
[12]; Log10 Concentration −4.0
  Percent Growth: −100%
[12]; Log10 Concentration −5.0
  Percent Growth: −95%
[12]; Log10 Concentration −6.0
  Percent Growth: 98%
[12]; Log10 Concentration −7.0
  Percent Growth: 98%
[12]; Log10 Concentration −8.0
  Percent Growth: 96%
[13]
  TGI: 2.44E−6
[13]; Homo sapiens
  GI50: 1210 nM
[13]; [19]
  CC50: 4940 nM
[13]; Log10 Concentration −4.0
  Percent Growth: −100%
[13]; Log10 Concentration −5.0
  Percent Growth: −100%
[13]; Log10 Concentration −6.0
  Percent Growth: 63%
[13]; Log10 Concentration −7.0
  Percent Growth: 90%
[13]; Log10 Concentration −8.0
  Percent Growth: 96%
[14]
  TGI: 3.06E−6
[14]; Homo sapiens
  GI50: 1670 nM
[14]; [19]
  CC50: 5620 nM
[14]; Log10 Concentration −4.0
  Percent Growth: −100%
[14]; Log10 Concentration −5.0
  Percent Growth: −97%
[14]; Log10 Concentration −6.0
  Percent Growth: 92%
[14]; Log10 Concentration −7.0
  Percent Growth: 97%
[14]; Log10 Concentration −8.0
  Percent Growth: 95%
[15]
  TGI: 2.91E−6
[15]; Homo sapiens, T47D
  GI50: 1120 nM
[15]; Homo sapiens, T47D, read-out: LC50 (the source's name)
  CC50: 7540 nM
[15]; Log10 Concentration −4.0
  Percent Growth: −61%
[15]; Log10 Concentration −5.0
  Percent Growth: −65%
[15]; Log10 Concentration −6.0
  Percent Growth: 56%
[15]; Log10 Concentration −7.0
  Percent Growth: 93%
[15]; Log10 Concentration −8.0
  Percent Growth: 95%
[16]
  TGI: 2.97E−6
[16]; Homo sapiens
  GI50: 1620 nM
[16]; [19]
  CC50: 5450 nM
[16]; Log10 Concentration −4.0
  Percent Growth: −100%
[16]; Log10 Concentration −5.0
  Percent Growth: −100%
[16]; Log10 Concentration −6.0
  Percent Growth: 90%
[16]; Log10 Concentration −7.0
  Percent Growth: 86%
[16]; Log10 Concentration −8.0
  Percent Growth: 88%
[17]
  TGI: 1.96E−6
[17]; Homo sapiens
  GI50: 334 nM
  LC50: 18300 nM
[17]; Log10 Concentration −4.0
  Percent Growth: −64%
[17]; Log10 Concentration −5.0
  Percent Growth: −45%
[17]; Log10 Concentration −6.0
  Percent Growth: 19%
[17]; Log10 Concentration −7.0
  Percent Growth: 85%
[17]; Log10 Concentration −8.0
  Percent Growth: 92%
[18]
  TGI: 2.21E−6
[18]; Homo sapiens
  GI50: 582 nM
[18]; [19]
  CC50: 6090 nM
[18]; Log10 Concentration −4.0
  Percent Growth: −82%
[18]; Log10 Concentration −5.0
  Percent Growth: −75%
[18]; Log10 Concentration −6.0
  Percent Growth: 39%
[18]; Log10 Concentration −7.0
  Percent Growth: 85%
[18]; Log10 Concentration −8.0
  Percent Growth: 84%

— patent US8680133B2, “Alkyl indole-3-carbinol-derived antitumor agents” (The Ohio State University Research Foundation, priority 2009, dated 2014)
